Measurements as given in US8841309B2, “Substituted pyrazines and their use in the treatment of disease” (Boehringer Ingelheim International GmbH, priority 2012, dated 2014).
Structures can show the parent of a compound that is named as a salt. Values belong to the compound of their own block, whether it stands above or below them.

Target: T1, ENaC (Mus musculus, UniProt Q61180+Q9WU38+Q9WU39)
T1 construct: Mouse kidney M-1 cells were cultivated in DMEM containing 5% FCS and 5 μM dexamethasone; endogenous in cells; host or cells: mouse kidney M-1 cells
T1 sequence (Q61180 1-699): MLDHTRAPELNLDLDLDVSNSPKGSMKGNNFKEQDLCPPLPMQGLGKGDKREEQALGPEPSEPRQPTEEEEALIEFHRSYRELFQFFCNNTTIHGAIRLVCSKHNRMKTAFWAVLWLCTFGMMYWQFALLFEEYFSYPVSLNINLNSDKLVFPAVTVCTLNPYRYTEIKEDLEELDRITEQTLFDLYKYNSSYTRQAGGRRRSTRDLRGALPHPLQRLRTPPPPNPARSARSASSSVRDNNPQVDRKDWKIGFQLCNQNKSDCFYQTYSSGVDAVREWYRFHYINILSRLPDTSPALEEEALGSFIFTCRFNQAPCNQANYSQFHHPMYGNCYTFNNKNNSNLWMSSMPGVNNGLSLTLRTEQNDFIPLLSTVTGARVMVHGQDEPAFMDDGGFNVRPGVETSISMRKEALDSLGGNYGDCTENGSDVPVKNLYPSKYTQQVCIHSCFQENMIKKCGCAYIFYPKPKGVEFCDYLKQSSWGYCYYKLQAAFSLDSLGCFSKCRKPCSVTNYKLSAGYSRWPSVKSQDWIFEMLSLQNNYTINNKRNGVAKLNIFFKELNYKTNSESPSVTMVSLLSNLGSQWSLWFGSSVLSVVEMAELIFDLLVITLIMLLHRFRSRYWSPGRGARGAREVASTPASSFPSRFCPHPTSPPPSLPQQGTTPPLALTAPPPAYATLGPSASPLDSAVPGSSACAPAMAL
T1 sequence (Q9WU38 1-638): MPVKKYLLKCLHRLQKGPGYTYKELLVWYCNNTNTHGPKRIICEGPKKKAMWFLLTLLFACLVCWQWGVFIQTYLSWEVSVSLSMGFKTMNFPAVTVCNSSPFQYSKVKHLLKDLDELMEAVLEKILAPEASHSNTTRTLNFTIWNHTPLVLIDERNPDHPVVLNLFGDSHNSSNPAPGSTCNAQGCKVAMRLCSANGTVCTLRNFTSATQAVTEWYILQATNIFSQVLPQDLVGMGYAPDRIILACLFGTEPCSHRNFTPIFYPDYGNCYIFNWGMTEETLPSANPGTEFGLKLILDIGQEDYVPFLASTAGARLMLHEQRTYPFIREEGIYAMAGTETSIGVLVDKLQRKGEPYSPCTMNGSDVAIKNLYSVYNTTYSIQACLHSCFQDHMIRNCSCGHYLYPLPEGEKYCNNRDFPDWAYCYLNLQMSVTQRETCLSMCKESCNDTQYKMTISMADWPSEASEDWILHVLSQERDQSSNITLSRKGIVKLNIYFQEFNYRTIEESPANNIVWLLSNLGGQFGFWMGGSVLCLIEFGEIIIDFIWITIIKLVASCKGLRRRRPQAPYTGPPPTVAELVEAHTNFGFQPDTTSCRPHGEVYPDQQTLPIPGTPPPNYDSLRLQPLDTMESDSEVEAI
T1 sequence (Q9WU39 1-655): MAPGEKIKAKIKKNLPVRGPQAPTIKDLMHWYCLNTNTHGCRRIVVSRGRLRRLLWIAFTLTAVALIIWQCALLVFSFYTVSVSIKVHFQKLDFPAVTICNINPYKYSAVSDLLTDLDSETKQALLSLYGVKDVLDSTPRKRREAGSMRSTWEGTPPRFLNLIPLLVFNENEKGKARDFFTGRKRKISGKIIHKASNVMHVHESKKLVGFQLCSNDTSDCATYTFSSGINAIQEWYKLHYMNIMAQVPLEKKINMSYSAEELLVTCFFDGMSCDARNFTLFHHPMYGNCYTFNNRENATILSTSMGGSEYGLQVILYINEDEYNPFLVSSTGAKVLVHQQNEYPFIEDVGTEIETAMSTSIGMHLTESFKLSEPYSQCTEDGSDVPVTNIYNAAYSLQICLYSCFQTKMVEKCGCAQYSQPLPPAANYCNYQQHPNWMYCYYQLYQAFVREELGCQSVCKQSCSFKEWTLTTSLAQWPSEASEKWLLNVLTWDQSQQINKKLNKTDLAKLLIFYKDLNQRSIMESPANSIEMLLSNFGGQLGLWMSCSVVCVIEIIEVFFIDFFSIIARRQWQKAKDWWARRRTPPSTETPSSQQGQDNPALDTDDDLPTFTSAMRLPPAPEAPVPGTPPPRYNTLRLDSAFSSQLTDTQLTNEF
Assay: Ussing chamber: short circuit current (I_sc) in mouse kidney M-1 cells, amiloride-sensitive
Type: cell-based
Details: compound applied to apical solution, 37° C.
Protocol: Ussing Chamber: Mouse kidney M-1 cells were cultivated in DMEM containing 5% FCS and 5 μM dexamethasone for 10 to 12 days on polyester transwell filters. Filters were inserted into a teflon-coated well-plate which fit into the in-house ussing chamber system. Prior to measurement the medium of M-1 cells was replaced with Caco-2 transport buffer (Invitrogen, Germany). During measurements, the Ussing chamber temperature was kept at 37° C. Short circuit currents (I_sc) were measured in the voltage-clamp mode using an in-house built amplifier (Boehringer Ingelheim, Biberach) with the software package Lab View for data acquisition and analysis. The transepithelial electrical resistance (TEER) was determined by the application of voltage steps of ±5 mV every 5 sec. Compounds were administered at a final concentration of 3 μM or at increasing concentrations (1-3-10 μM) to the apical solution. At the end of each experiment the amiloride sensitive I_SC was measured by adding 3 μM amiloride to the apical compartment. Results are expressed as inhibition in percent of the amiloride effect or as IC50.

IC50: 64 nM
Structure (SMILES): COC(=O)c1ccc(C[N+]2(C)CCC(NC(N)=NC(=O)c3nc(Cl)c(N)nc3N)CC2)cc1 (stereo not shown) [Example 70.1]

Structure (SMILES): CSc1cccc(C[N+]23CCC(CC2)[C@H](NC(N)=NC(=O)c2nc(Cl)c(N)nc2N)C3)c1 [Example 56]
IC50: 12 nM

IC50: 52 nM
Structure (SMILES): CC[N+]1(Cc2ccccc2)CCC(NC(N)=NC(=O)c2nc(Cl)c(N)nc2N)CC1 (stereo not shown) [Example 70.2]

Structure (SMILES): N/C(=N\C(=O)c1nc(Cl)c(N)nc1N)N[C@H]1C[N+]2(Cc3ccccc3)CCC1CC2 [Example 5, (R)-1-Benzyl-3-[N′-(3,5-diamino-6-chloro-pyrazine-2-carbonyl)-guanidino]-1-azoniabicyclo[2.2.2]octane bromide]
IC50: 460 nM

Structure (SMILES): CS(=O)(=O)c1ccc(C[N+]23CCC(CC2)[C@H](NC(N)=NC(=O)c2nc(Cl)c(N)nc2N)C3)cc1 [Example 21]
IC50: 176 nM

Structure (SMILES): CCNC(=O)C[N+]12CCC(CC1)[C@H](NC(N)=NC(=O)c1nc(Cl)c(N)nc1N)C2 [Example 24]
IC50: 56 nM

Structure (SMILES): NC(=NC(=O)c1nc(Cl)c(N)nc1N)N[C@@H]1C[N+]2(Cc3ccccc3SC(F)(F)F)CCC1CC2 [Example 10]
IC50: 60 nM

Structure (SMILES): NC(=NC(=O)c1nc(Cl)c(N)nc1N)NC1C[N+]2(CC(=O)NC3CCC(c4ccccc4)CC3)CCC1CC2 (stereo not shown) [Example 75]
IC50: 22 nM

Structure (SMILES): N=C(NC(=O)c1nc(Cl)c(N)nc1N)N[C@@H]1C[N+]2(CC(=O)N[C@H](Cc3ccccc3)C(=O)O)CCC1CC2 [Example 73.1, (S)-1-[((R)-1-Carboxy-2-phenyl-ethylcarbamoyl)-methyl]-3-[N′-(3,5-diamino-6-chloro-pyrazine-2-carbonyl)-guanidino]-1-azonia-bicyclo[2.2.2]octane; chloride hydrochloride]
IC50: 197 nM

Structure (SMILES): N/C(=N\C(=O)c1nc(Cl)c(N)nc1N)N[C@@H]1C[N+]2(Cc3ccc4ccccc4n3)CCC1CC2 [Example 11, (S)-3-[N′-(3,5-Diamino-6-chloro-pyrazine-2-carbonyl)-guanidino]-1-quinolin-2-ylmethyl-1-azoniabicyclo[2.2.2]octane chloride]
IC50: 29 nM

Structure (SMILES): CC(C)=CC[N+]12CCC(CC1)[C@H](N/C(N)=N/C(=O)c1nc(Cl)c(N)nc1N)C2 [Example 69, (S)-3-[N′-(3,5-Diamino-6-chloro-pyrazine-2-carbonyl)-guanidino]-1-(3-methyl-but-2-enyl)-1-azoniabicyclo[2.2.2]octane chloride]
IC50: 188 nM

IC50: 46 nM
Structure (SMILES): CCNC(=O)C[N+]1(C)CCC[C@H](N/C(N)=N/C(=O)c2nc(Cl)c(N)nc2N)C1 (mixture of isomers) [Example 70.6]

Structure (SMILES): COC(=O)c1ccc(CCNC(=O)C[N+]23CCC(CC2)[C@H](NC(N)=NC(=O)c2nc(Cl)c(N)nc2N)C3)cc1 [Example 61]
IC50: 2 nM

Structure (SMILES): NC(=NC(=O)c1nc(Cl)c(N)nc1N)N[C@@H]1C[N+]2(Cc3ccccc3OC(F)(F)F)CCC1CC2 [Example 54]
IC50: 69 nM

Structure (SMILES): N/C(=N\C(=O)c1nc(Cl)c(N)nc1N)N[C@@H]1C[N+]2(Cc3ccccc3)CCC1CC2 [Example 6, (S)-1-Benzyl-3-[N′-(3,5-diamino-6-chloro-pyrazine-2-carbonyl)-guanidino]-1-azoniabicyclo[2.2.2]octane bromide]
IC50: 28 nM

Structure (SMILES): N/C(=N\C(=O)c1nc(Cl)c(N)nc1N)N[C@@H]1C[N+]2(Cc3ccc(F)cc3)CCC1CC2 [Example 14, (S)-3-[N′-(3,5-Diamino-6-chloro-pyrazine-2-carbonyl)-guanidino]-1-(4-fluoro-benzyl)-1-azoniabicyclo[2.2.2]octane chloride]
IC50: 28 nM

Structure (SMILES): NC(=NC(=O)c1nc(Cl)c(N)nc1N)N[C@@H]1C[N+]2(CC(=O)N3CCN(c4ccccn4)CC3)CCC1CC2 [Example 62]
IC50: 20 nM

Structure (SMILES): CC(C)(C)c1ccc(C[N+]23CCC(CC2)[C@H](N/C(N)=N/C(=O)c2nc(Cl)c(N)nc2N)C3)cc1 [Example 8, (S)-1-(4-tert-Butyl-benzyl)-3-[N′-(3,5-diamino-6-chloro-pyrazine-2-carbonyl)-guanidino]-1-azoniabicyclo[2.2.2]octane chloride]
IC50: 41 nM

Structure (SMILES): CCOC(=O)N1CCC(NC(=O)C[N+]23CCC(CC2)[C@H](NC(N)=NC(=O)c2nc(Cl)c(N)nc2N)C3)CC1 [Example 64]
IC50: 76 nM

Structure (SMILES): NC(=NC(=O)c1nc(Cl)c(N)nc1N)N[C@@H]1C[N+]2(CC(=O)Nc3ccccc3)CCC1CC2 [Example 58]
IC50: 25 nM

Structure (SMILES): NC(=NC(=O)c1nc(Cl)c(N)nc1N)N[C@@H]1C[N+]2(CC(=O)NCC3(c4ccccc4)CCOCC3)CCC1CC2 [Example 74]
IC50: 15 nM

Structure (SMILES): NC(=NC(=O)c1nc(Cl)c(N)nc1N)N[C@@H]1C[N+]2(Cc3cccc(Cl)c3)CCC1CC2 [Example 27]
IC50: 12 nM

Structure (SMILES): CCOC(=O)C[N+]12CCC(CC1)[C@H](NC(N)=NC(=O)c1nc(Cl)c(N)nc1N)C2 [Example 42]
IC50: 191 nM

Structure (SMILES): NC(=NC(=O)c1nc(Cl)c(N)nc1N)N[C@@H]1C[N+]2(Cc3ccc(CC(=O)O)cc3)CCC1CC2 [Example 40]
IC50: 625 nM

Structure (SMILES): NC(=NC(=O)c1nc(Cl)c(N)nc1N)N[C@@H]1C[N+]2(CC(=O)N3CCN(c4ncccn4)CC3)CCC1CC2 [Example 66]
IC50: 22 nM

Structure (SMILES): NC(=NC(=O)c1nc(Cl)c(N)nc1N)N[C@@H]1C[N+]2(Cc3ccc(CO)cc3)CCC1CC2 [Example 17]
IC50: 52 nM

Structure (SMILES): NC(=NC(=O)c1nc(Cl)c(N)nc1N)N[C@@H]1C[N+]2(CC(=O)NCc3ccccc3)CCC1CC2 [Example 34]
IC50: 7 nM

Structure (SMILES): CC(C)(C)OC(=O)c1ccc(C[N+]23CCC(CC2)[C@H](NC(N)=NC(=O)c2nc(Cl)c(N)nc2N)C3)cc1 [Example 46]
IC50: 267 nM

IC50: 45 nM
Structure (SMILES): C[N+]1(CC(=O)NCc2ccc(Cl)cc2)CCC[C@@H](N/C(N)=N/C(=O)c2nc(Cl)c(N)nc2N)C1 (mixture of isomers) [Example 70.5]

Structure (SMILES): NC(=NC(=O)c1nc(Cl)c(N)nc1N)N[C@@H]1C[N+]2(CC(=O)OCc3ccccc3)CCC1CC2 [Example 39]
IC50: 23 nM

Structure (SMILES): NC(=NC(=O)c1nc(Cl)c(N)nc1N)N[C@@H]1C[N+]2(CC(=O)NCCc3ccccc3)CCC1CC2 [Example 55]
IC50: 1 nM

Structure (SMILES): NC(=NC(=O)c1nc(Cl)c(N)nc1N)N[C@@H]1C[N+]2(Cc3ccc(OC(F)(F)F)cc3)CCC1CC2 [Example 51]
IC50: 89 nM

Structure (SMILES): NC(=NC(=O)c1nc(Cl)c(N)nc1N)N[C@@H]1C[N+]2(Cc3ccc(F)c(Cl)c3)CCC1CC2 [Example 26]
IC50: 13 nM

Structure (SMILES): COc1cccc(C[N+]23CCC(CC2)[C@H](NC(N)=NC(=O)c2nc(Cl)c(N)nc2N)C3)c1OC [Example 37]
IC50: 34 nM
